{"source": "paper PMC9962741", "about": "“In Silico and In Vitro Screening of Serine Racemase Agonist and In Vivo Efficacy on Alzheimer’s Disease Drosophila melanogaster” (Pharmaceuticals, 2023)", "target": "T1, serine racemase (SRR) (Homo sapiens, UniProt Q9GZT4)", "T1 construct": "SRR Enzyme Human Recombinant (ENZ-232, ProSpec)", "T1 sequence (Q9GZT4 1-340)": "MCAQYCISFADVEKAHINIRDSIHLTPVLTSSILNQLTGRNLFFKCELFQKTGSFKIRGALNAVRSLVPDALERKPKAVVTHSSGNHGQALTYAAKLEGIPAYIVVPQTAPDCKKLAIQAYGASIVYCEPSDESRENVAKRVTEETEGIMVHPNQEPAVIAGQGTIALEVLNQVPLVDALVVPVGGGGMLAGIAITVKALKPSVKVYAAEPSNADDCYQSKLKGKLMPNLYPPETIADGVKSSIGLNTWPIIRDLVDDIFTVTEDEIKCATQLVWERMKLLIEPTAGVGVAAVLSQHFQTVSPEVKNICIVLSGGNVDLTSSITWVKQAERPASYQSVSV", "experiment": "recombinant SRR racemization of L-serine, D-serine read by coupled DAAO/HRP luminol luminescence (activation)", "assay_type": "biochemical"}
{"smiles": "NC(CSc1nc2ccccn2c1[N+](=O)[O-])C(=O)O", "note": "(stereo not shown) [NSC294149, 2-amino-3-(3-nitroimidazo[1,2-a]pyridin-2-yl)sulfanylpropanoic acid]", "values": [{"measurement": "% increase of SRR activity", "value": "200 % increase of SRR activity"}]}
